Experimental data from patent publication US8415384B2, “Reducing myocardial reperfusion injury by the combination therapy of protein kinase A activation and B1-adrenergic receptor blockade” (The Board of Regents of the University of Texas System, priority 2008, dated 2013).
Where two headings read alike, the source gives them in different places. Where no end group is shown, it is not given here.

Tests used:
[1] = system: rat myocardial ischemia-reperfusion model; assay: rat myocardial ischemia-reperfusion model (30-min coronary occlusion, 4-hr reperfusion), infarct size; type: in vivo; details: for effect on infarct size (in words): infusion at late ischemia-early reperfusion; for increase of infarct size (IS): pre-ischemic infusion (10-min), ICI-118551 100 μg/kg/min, CGRP8-37 3 ng/kg/min, n=8/group
Text: N=6 rats/group. […] Yellow zone within the red is the infarcted area. Red zone is the area-at-risk supplied by the occluded left anterior descending coronary artery. Blue zone is non-risk zone supplied by no-occluded right and circumflex coronary arteries. Infarct size is normalized as the ration of yellow-area/red-area. Acute infarction-reperfusion model consists of 30-minute occlusion of the left anterior descending coronary artery followed by four-hour reperfusion. Infarct-size was quantified at the end of four-hour reperfusion. N=6 rats/group. Inventors used rat MI model (30-min ischemia and 4 h reperfusion). […] The effect of combination therapy on myocyte protection was further assessed in a simulated ischemia-reperfusion model of isolated rat ventricular myocytes (2-hr ischemia and 1-hr reperfusion). […] The mechanisms underlying combination therapy were determined by assessing myocardial PKA and PKC activity in normal rats. […] Experimental Myocardial Ischemia-Reperfusion Model. The rat myocardial ischemia-reperfusion model will be used (Birnbaum et al., 2005; Huang et al., 2007a). This model consists of 30 min coronary artery occlusion followed by 4-hr reperfusion. […] To determine the effect of β1-adrenergic receptor antagonist and the synergistic action of both PKA activator and β1-adrenergic receptor antagonist, esmolol ([…]) will be intravenously infused to rats with or without milrinone. Arterial blood pressure and heart rate will be monitored continuously throughout the experiments. Method for in vivo myocardial infarct study: Following anesthesia and ventilation support, the chest is opened and the left coronary artery encircled with a suture and ligated for 30 min. The snare is then released and myocardium reperfused for 4 hr. The left coronary artery is then reoccluded and Evan's blue dye injected into the right ventricle. The LV is sliced into 6-7 sections. […] The areas of ischemia and necrosis in each slice are determined by planimetry, converted into percentages of the whole for each slice, and multiplied by the weight of the slice.

[2] = cited from earlier work
[3] = system: PKA; assay: myocardial PKA activity after IV infusion in normal rats; type: in vivo, rat; details: 10-min tail vein infusion, peaked at 5-min post-infusion, ventricular tissue
Protocol: (§1) Inventors used rat MI model (30-min ischemia and 4 h reperfusion). […] The effect of combination therapy on myocyte protection was further assessed in a simulated ischemia-reperfusion model of isolated rat ventricular myocytes (2-hr ischemia and 1-hr reperfusion). […] The mechanisms underlying combination therapy were determined by assessing myocardial PKA and PKC activity in normal rats.

[4] = system: isolated rat ventricular myocytes; assay: simulated ischemia-reperfusion of isolated rat ventricular myocytes (2-hr hypoxia, 1-hr re-oxygenation), myocyte death; type: cell-based
Protocol: In vitro myocyte ischemia/reperfusion study consists of 2-hour hypoxia followed by 1-hour re-oxygenation. Hypoxia is created by layering mineral oil over the cells. Re-oxygenation is made by removal of the oil. Myocyte death is quantified at the end of 1-hour reperfusion.
as §1
To verify that infarct-size reducing or limiting effect is a direct product of PKA activation on myocyte survival but not a secondary effect due to salutatory coronary/systemic hemodynamic alternations, the inventors tested the effect of PKA activation by milrinone on isolated rat ventricular myocytes in primary culture. In vitro myocyte ischemia-reperfusion study consists of 2-hour hypoxia followed by 1-hour re-oxygenation. Hypoxia is created by layering mineral oil over the cells. Re-oxygenation is made by removal of the oil. Myocyte death is quantified at the end of 1-hour reperfusion.

[5] = system: acute myocardial infarction; details: rat model, administration before the onset of acute myocardial infarction; cited from earlier work
[6] = system: acute myocardial infarction; details: canine model, administration 30-min after the onset of acute myocardial infarction; cited from earlier work
[7] = milrinone 5 μg/kg/min, esmolol 10 μg/kg/min

## COC(=O)CCc1ccc(OCC(O)CNC(C)C)cc1 (centres unmarked) [esmolol]
[1]; [7]
  effect on infarct size (in words): did not change infarct size

## COc1cccc2c1C(=O)c1c(O)c3c(c(O)c1C2=O)C[C@@](O)(C(=O)CO)C[C@@H]3O[C@H]1C[C@H](N)[C@H](O)[C@H](C)O1 [doxorubicin]
[2]; dose of 501-550 mg/m^2 body surface area, patients
  incidence of doxorubicin-induced cardiomyopathy: > 5%
[2]; dose over 550 mg/m^2, patients
  incidence of doxorubicin-induced cardiomyopathy: 30%

## CC(C)(C)NCC(O)c1cc(O)cc(O)c1 (centres unmarked) [terbutaline]
[1]; CGRP or terbutaline alone, late ischemia-early reperfusion
  effect on infarct size (IS) of single agent (in words): did not reduce IS
[3]
  increase of PKA activity: 30%
[4]; CGRP or terbutaline alone
  myocyte survival benefit of single agent (in words): no myocyte survival benefit

## Cc1ccc(OCC(O)C(C)NC(C)C)c2c1CCC2 (centres unmarked) [ICI-118551]
[1]
  increase of infarct size (IS): 44%

## CGRP8-37: CGRP-receptor blocker (VTHRLAGLLSRSGGVVKNNFVPTNVGSKAF; ends and bridges not checked; UniProt P06881 90-119, looked up, fragment)
[1]
  increase of infarct size (IS): 36%

## Cc1[nH]c(=O)c(C#N)cc1-c1ccncc1 [milrinone]
[1]; 10-minute infusion from last 5 minutes of 30-minute ischemia to first 5 minutes of four-hour reperfusion, milrinone 5 μg/kg/min, esmolol 10 μg/kg/min, N=6 rats/group
  infarct-size reduction compared with saline control: 53±5%
[1]; [7]
  effect on infarct size (in words): robust infarct-size reduction
[5]
  effect on infarct size, given before onset of infarction (preconditioning): infarct-size reduction
[6]
  effect on infarct size, given after onset of infarction: no infarct-size reduction
[4]; cells pretreated with PKA inhibitor Rp-CAMP 100 μmol/L
  milrinone-induced myocyte protection in presence of PKA inhibitor: abolished
[4]; milrinone 4.7 μmol/L, thirty minutes after the onset of ischemia
  reduction of myocyte death compared to saline control: 11%
